# Data: patent publication US20260028330A1, “HETEROARYL CARBOXAMIDE AND RELATED GPR84 ANTAGONISTS AND USES THEREOF” (LIMINAL BIOSCIENCES LIMITED, priority 2022, published 2026)
# Biological target: T1, human GPR84 receptor (Homo sapiens, UniProt Q9NQS5)
# T1 construct: host or cells: HEK293 cells, transient transfection
# Assay: Gαi biosensor BRET assay in transfected HEK293 cells (antagonism of GPR84 agonist ZQ-16)
# Format: cell-based
# Conditions: 200 nmol/L ZQ-16; for inhibition at 10 µM: code F = 10 μM; for inhibition at 2 µM: code A = 2 μM
# Text: Background—The following assays can be used for determination of GPR84 activation in living HEK293 cells. The Gαi BRET biosensor (Gagnon et al., 2018; Gales et al., 2006. Nat Struct Mol Biol. 13, 778-86; Saulieres et al., 2012. Nat Chem Biol. 8, 622-30) allows to directly monitor GPR84-mediated activation of Gαi. The Gαi biosensor consists of a Rluc8-tagged Gαi2 subunit, a GFP10-tagged Gγ2 subunit, and an untagged Gβ1. Agonist stimulation and GPR84 activation triggers a physical separation between the RLuc8-Gαi donor and the GFP10-Gγ2 acceptor, resulting in a decrease in BRET signal whose amplitude is correlated to ligand efficacy (Gales et al., 2006). Moreover, signaling functions of GPCRs are tightly regulated by endocytosis, the targeting of receptors to endosomes and their sorting to lysosomes or recycling to the plasma membrane. The early endosomes (EEs) trafficking assay (Namkung et al., 2016. Nat Commun. 7, 12178) uses Rluc8-tagged GPR84 and Renilla GFP (rGFP) attached to the FYVE domain from human endofin/zinc finger FYVE domain-containing protein 16, which binds phosphatidylinositol 3-phosphate in EEs. Agonist stimulation of GPR84-Rluc8 leads to trafficking of the receptor to EEs, and ensuing increase of the donor concentration relative to the rGFP-FYVE acceptor anchored in the same cellular compartment, and thus results in an increase in BRET signal.
# Plasmids—The cDNA clones for human GPR84 receptor, human Gαi2, Gβ1, and Gγ2 were obtained from the cDNA Resource Center (www.cdna.org). GFP10 (F64L, S147P, S202F and H231L variant of Aequorea victoria Green Fluorescent Protein) gBlocks gene fragments (Integrated DNA Technologies, IA) and linker were inserted in frame at the N-terminus of human Gγ2. Rluc8 (A55T, C124A, S130A, K136R, A143M, M185V, M253L, and S287L variant of the Renilla reniformis luciferase) gBlocks gene fragment was inserted with linkers in frame in between residues 91 and 92 of Gα2 or at the C-terminus of GPR84. The FYVE domain from human endofin (residues Q739 to K806) attached in frame at the C terminus of a humanized Renilla GFP (rGFP), were synthesized as gBlocks gene fragments.
# Bioluminescence Resonance Energy Transfer (BRET) Measurement—HEK293 cells were transfected with GPR84-Rluc8 and rGFP-FYVE for the EEs trafficking biosensor or with GPR84, Gαi2-Rluc8, GFP10-Gγ2, and Gβ1 for the Gαi biosensor. The following day, transiently transfected cells were seeded in 96-well white clear bottom microplates coated with poly-D-lysine and left in culture for 24 hours. Cells were washed once with Tyrode's buffer (140 mmol/L NaCl, 1 mmol/L CaCl2, 2.7 mmol/L KCl, 0.49 mmol/L MgCl2, 0.37 mmol/L NaH2PO4, 5.6 mmol/L glucose, 12 mmol/L NaHCO3, and 25 mmol/L HEPES, pH 7.5) before performing assays in Tyrode's buffer. Test compounds were incubated with cells for 5 (Gui) or 15 (EEs) minutes at 37° C. before addition of 200 nmol/L of the GPR84 agonist ZQ-16 (2-(Hexylthio)-6-hydroxy-4(3H)-pyrimidinone) for 5 minutes at room temperature (Gui) or 30 minutes at 37° C. (EEs). The Rluc8 substrate coelenterazine 400A (Prolume, Lakeside, AZ) was added at a final concentration of 5 μmol/L and BRET readings were collected using an Infinite M1000 microplate reader (Tecan, Morrisville, NC). BRET^2 readings between Rluc8 and GFP10 or rGFP were collected by sequential integration of the signals detected in the 370 to 450 nm (Rluc8) and 510 to 540 nm (GFP10, rGFP) windows. The BRET signal was calculated as the ratio of light emitted by acceptor (GFP10, rGFP) over the light emitted by donor (Rluc8). The values were corrected to net BRET by subtracting the background BRET signal obtained in cells transfected with Rluc8 constructs alone. Ligand-promoted net BRET values were calculated by subtracting vehicle-induced net BRET from ligand-induced net BRET.
# T1 sequence (Q9NQS5 whole entry): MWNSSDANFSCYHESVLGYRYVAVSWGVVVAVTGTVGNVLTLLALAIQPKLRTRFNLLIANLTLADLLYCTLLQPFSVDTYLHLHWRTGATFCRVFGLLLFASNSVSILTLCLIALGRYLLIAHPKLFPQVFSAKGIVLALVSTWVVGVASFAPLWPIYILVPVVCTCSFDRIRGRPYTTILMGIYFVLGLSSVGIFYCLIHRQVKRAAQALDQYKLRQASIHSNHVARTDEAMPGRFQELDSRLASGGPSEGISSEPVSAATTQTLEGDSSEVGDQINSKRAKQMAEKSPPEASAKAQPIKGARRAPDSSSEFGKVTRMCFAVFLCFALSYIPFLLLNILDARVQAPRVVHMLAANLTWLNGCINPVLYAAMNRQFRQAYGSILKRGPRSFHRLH
"inhibition at 10 µM (HEK293, single concentration)",IC50,Compound,also measured
25 to 50%,–,CN(C(=O)c1cn(CC2OCC3(CC3)CO2)nn1)c1cc(C#CC2CC2)ccc1O [Compound I-49],–
> 75%,–,Cc1cc(C#CC2CC2)ccc1N(C)C1(c2cn(CC3OCC4(CC4)CO3)nn2)COC1 [Compound I-95],–
–,–,O=C(c1cn(CC2OCC3(CC3)CO2)nn1)N1CCc2c(C#CC3CC3)cccc21 [Compound I-25],"inhibition at 2 µM (HEK293, single concentration): ≤ 25%"
–,–,"Cc1ccc(C#CC2CC2)cc1Nc1cn(CC(=O)N(C)C)nn1 [Compound I-6, 2-(4-((5-(cyclopropylethynyl)-2-methylphenyl)amino)-1H-1,2,3-triazol-1-yl)-N,N-dimethylacetamide]","inhibition at 2 µM (HEK293, single concentration): ≤ 25%"
50 to 75%,–,Cc1c(N(C)C(=O)c2ccc(C#CC3CC3)cc2)nnn1CC1OCC2(CC2)CO1 [Compound I-61],–
> 75%,≤ 300 nM,Cc1ccc(C#CC2CC2)c(F)c1N(C)C(=O)c1cn(CC2OCC3(CC3)CO2)nn1 [Compound I-37],–
> 75%,≤ 300 nM,Cc1cc(C#CC2CC2)ccc1N(C)C(=O)c1cn(CC2OCC3(CC3)CO2)nn1 [Compound I-21],–
–,≤ 300 nM,CN(C(=O)c1cn(CC2OCC3(CC3)CO2)cn1)c1ccc(C#CC2CC2)cc1F [Compound I-59],"inhibition at 2 µM (HEK293, single concentration): > 75%"
25 to 50%,–,"Cc1ccc(C#CC2CC2)cc1N(C)C(=O)c1cn(CC(=O)N(C)C)nn1 [Compound I-13, N-(5-(cyclopropylethynyl)-2-methylphenyl)-1-(2-(dimethylamino)-2-oxoethyl)-N-methyl-1H-1,2,3-triazole-4-carboxamide]",–
> 75%,–,Cc1cc(C#CC2CC2)ccc1N(C)S(=O)(=O)c1cn(CC2OCC3(CC3)CO2)nn1 [Compound I-56],–
25 to 50%,–,COc1cc(C#CC2CC2)cc(N(C)C(=O)c2cn(CC3OCC4(CC4)CO3)nn2)c1 [Compound I-99],–
> 75%,300 to 1000 nM,CN(C)c1ccc(C#CC2CC2)cc1N(C)C(=O)c1cn(CC2OCC3(CC3)CO2)nn1 [Compound I-26],–
> 75%,–,Cc1cc(C#CC2CC2)ccc1N(C)Cc1cn(CC2OCC3(CC3)CO2)nn1 [Compound I-40],–
–,≤ 300 nM,CN(C(=O)c1cn(CC2OCC3(CC3)CO2)nn1)c1ccc(C#CC2CC2)cc1Cl [Compound I-94],"inhibition at 2 µM (HEK293, single concentration): > 75%"
50 to 75%,–,O=C(c1cn(CC2OCC3(CC3)CO2)nn1)N1CCCc2c(C#CC3CC3)cccc21 [Compound I-28],–
–,≤ 300 nM,CN(C(=O)c1cn(CC2OCC3(CC3)CO2)nn1)c1ccc(C#CC2CC2)cc1F [Compound I-29],"inhibition at 2 µM (HEK293, single concentration): > 75%"
> 75%,300 to 1000 nM,"CN(C)c1cc(C#CC2CC2)ccc1N(C)C(=O)c1cn(CC2OCC3(CC3)CO2)nn1 [Compound I-1, 1-((5,7-dioxaspiro[2.5]octan-6-yl)methyl)-N-(4-(cyclopropylethynyl)-2-(dimethylamino)phenyl)-N-methyl-1H-1,2,3-triazole-4-carboxamide]",–
≤ 25%,–,Cc1ccc(C#CC2CC2)cc1C(=O)N(C)c1cn(CC2OCC3(CC3)CO2)nn1 [Compound I-16],–

"inhibition at 10 µM (HEK293, single concentration)",IC50,Compound,also measured
–,≤ 300 nM,Cc1cc(C#CC2CC2)ccc1N(C(=O)c1cn(CC2OCC3(CC3)CO2)nn1)C(C)C [Compound I-84],"inhibition at 2 µM (HEK293, single concentration): > 75%"
> 75%,300 to 1000 nM,Cc1cc(C#CC2CC2)cc(C)c1N(C)C(=O)c1cn(CC2OCC3(CC3)CO2)nn1 [Compound I-60],–
> 75%,–,Cc1ccc(C#CC2CC2)cc1/N=C(\OC(C)C)c1cn(CC2OCC3(CC3)CO2)nn1 [Compound I-87],–
≤ 25%,–,Cc1ccc(C#CC2CC2)cc1N(C)C(=O)c1cn(CCC(=O)N(C)C)nn1 [Compound I-24],–
–,≤ 300 nM,CN(C(=O)c1cn(CC2OCC3(CC3)CO2)nn1)c1c(F)cc(C#CC2CC2)cc1F [Compound I-43],"inhibition at 2 µM (HEK293, single concentration): > 75%"
–,–,Cc1cc(C#CC2CC2)c2c(c1)CCC2N(C)c1cn(CC2OCC3(CC3)CO2)nn1 (stereo not drawn) [Compound I-81],"inhibition at 2 µM (HEK293, single concentration): ≤ 25%"
> 75%,–,"CN(c1cn(CC2OCC3(CC3)CO2)nn1)c1cc(C#CC2CC2)ccc1Cl [Compound I-8, 1-((5,7-dioxaspiro[2.5]octan-6-yl)methyl)-N-(2-chloro-5-(cyclopropylethynyl)phenyl)-N-methyl-1H-1,2,3-triazol-4-amine]",–
> 75%,1000 to 3000 nM,CN(C(=O)c1cn(CC2OCC3(CC3)CO2)nn1)c1cc(C#CC2CC2)ccc1F [Compound I-31],–
> 75%,≤ 300 nM,Cc1cc(C#CC2CC2)cc(F)c1N(C)C(=O)c1cn(CC2OCC3(CC3)CO2)nn1 [Compound I-32],–
> 75%,300 to 1000 nM,CCc1ccc(C#CC2CC2)cc1N(C)C(=O)c1cn(CC2OCC3(CC3)CO2)nn1 [Compound I-104],–
≤ 25%,–,Cc1ccc(C#CC2CC2)cc1N(C)C(=O)c1ncc(OCC(=O)N(C)C)cc1C [Compound I-34],–
–,–,"Cc1ccc(C#CC2CC2)cc1C(=O)Nc1cn(CC2OCC3(CC3)CO2)nn1 [Compound I-9, N-(1-((5,7-dioxaspiro[2.5]octan-6-yl)methyl)-1H-1,2,3-triazol-4-yl)-5-(cyclopropylethynyl)-2-methylbenzamide]","inhibition at 6.7 µM (HEK293, single concentration, code E = 6.7 μM): ≤ 25%"
50 to 75%,–,Cc1cc(C#CC2CC2)ccc1C(=O)N(C)c1cn(CC2OCC3(CC3)CO2)nn1 [Compound I-19],–
25 to 50%,–,Cc1cc(C#CC2CC2)ccc1NCc1cn(CC2OCC3(CC3)CO2)nn1 [Compound I-39],–
≤ 25%,–,Cc1c(NC(=O)c2ccc(C#CC3CC3)cc2)nnn1CC1OCC2(CC2)CO1 [Compound I-62],–
≤ 25%,–,Cc1c(NC(=O)c2cccc(C#CC3CC3)c2)nnn1CC1OCC2(CC2)CO1 [Compound I-64],–
≤ 25%,–,Cc1ccc(N(C)C(=O)c2cn(CC3OCC4(CC4)CO3)nn2)nc1C#CC1CC1 [Compound I-50],–

Compound,"inhibition at 10 µM (HEK293, single concentration)",IC50,also measured
Cc1ccccc1NC(=O)c1cn(CC2OCC3(CC3)CO2)nn1 [Compound I-30],≤ 25%,–,–
O=C(c1cn(CC2OCC3(CC3)CO2)nn1)N(c1ccc(C#CC2CC2)cc1F)C1CC1 [Compound I-91],–,≤ 300 nM,"inhibition at 2 µM (HEK293, single concentration): > 75%"
Cc1cc(C#CC2CC2)cc(C)c1NC(=O)c1cn(CC2OCC3(CC3)CO2)nn1 [Compound I-41],≤ 25%,–,–
Cc1cc(C#CC2CC2)ccc1OC(=O)c1cn(CC2OCC3(CC3)CO2)nn1 [Compound I-46],25 to 50%,–,–
O=C(Nc1cc(C#CC2CC2)ccc1C1CC1)c1cn(CC2OCC3(CC3)CO2)nn1 [Compound I-45],≤ 25%,–,–
Cc1ccc(C#CC2CC2)cc1NC(=O)c1cn(CC2OCC3(CC3)CO2)nn1 [Compound I-14],≤ 25%,–,–
O=C(c1cn(CC2OCC3(CC3)CO2)nn1)N(c1cc(C#CC2CC2)ccc1Br)C1CC1 [Compound I-92],–,300 to 1000 nM,"inhibition at 2 µM (HEK293, single concentration): > 75%"
O=C(c1cn(CC2OCC3(CC3)CO2)nn1)N(c1cc(C#CC2CC2)ccc1F)C1CC1 [Compound I-90],> 75%,≤ 300 nM,–
O=C(Nc1c(F)cc(C#CC2CC2)cc1F)c1cn(CC2OCC3(CC3)CO2)nn1 [Compound I-42],≤ 25%,–,–
